From patent US8901295B2 (Institut National de la Sante et de la Recherche Medicale …, priority 2009, dated 2014)
Read-outs that look alike come from different tables or passages of the source.

Legend:
[1] = molecular target: Cyclophilin B (CypB) (Homo sapiens (Human), UniProt P23284); assay: Cyclophilin PPIase enzymatic assay (chymotrypsin coupled), CypB; assay type: biochemical; settings: for Inhibition (%): activity test at 100 μM on CypB; for IC50: CypB
Procedure: (§1) Cyclophilin A, B protein carrying a hexahistidine tag (His-Tag) at the C-terminus, were expressed in Escherichia coli and purified. Briefly, cultures of C41(DE3) cells were grown at 37° C. for ˜1 h until the culture reached an optical density of 0.6 at 600 nm, and induced with 1 mM isopropyl β-D-thiogalactoside for 4 h at 37° C. or overnight at 22° C. for cylophilin A and cyclophilin B, respectively. Cell pellets (1 L) were resuspended in a lysis buffer (20 mM NaH2PO4 (pH 7.8), 300 mM NaCl, 7 mM β-mercaptoethanol, 1 mg/ml lysozyme, 0.1 U/μl Desoxyribonuclease and complete protease inhibitor tablets (Roche)). The sonicated cell lysates were clarified by centrifugation at 10 000 g for 45 min at 4° C., chromatographed on a Ni-NTA column and washed with buffer: (20 mM NaH2PO4 (pH7.8), 300 mM NaCl, 50 mM imidazole, 7 mM β-mercaptoethanol, 10% glycerol). The bound protein was eluted in 1 ml fractions with buffer: (20 mM NaH2PO4 (pH7.8), 300 mM NaCl, 250 mM imidazole, 7 mM β-mercaptoethanol, 10% glycerol) and monitored by the Bradford colorimetric assay. The purity of each cyclophilin was determined by Coomassie-stained SDS-PAGE analysis.
(§2) The reaction was initiated by adding 20 μL of 3.2 mM peptide substrate (Suc-Ala-Ala-cis-Pro-Phe-pNA) in LiCl/TFE solution with rapid inversion. […] The final concentration of LiCl in the assay was 20 mM; TFE was present at a concentration of 4% (v/v). Absorbance readings were collected every 1 s by spectrophotometer. The inhibition assays of compounds were performed in the same manner as mentioned above. A 5 μL aliquot of the compounds in DMSO was added to the cyclophilin solution in the assay buffer. The assay was started by the addition of the substrate. Cyclosporine A was used as control in all measurement. The percentage inhibition of cyclophilin PPiase activity were calculated from slopes and values obtained represent an average of at least two independent measurements.

[2] = molecular target: Cyclophilin A (CypA) (Homo sapiens (Human), UniProt P62937); assay: Cyclophilin PPIase enzymatic assay (chymotrypsin coupled), CypA; assay type: biochemical
Cyclophilin A (CypA), sequence (P62937 whole entry): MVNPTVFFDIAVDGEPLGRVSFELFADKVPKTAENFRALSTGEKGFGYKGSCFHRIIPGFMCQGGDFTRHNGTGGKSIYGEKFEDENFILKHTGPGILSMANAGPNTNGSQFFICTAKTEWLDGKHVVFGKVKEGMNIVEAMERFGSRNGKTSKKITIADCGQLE
Procedure: as §1, §2

[3] = activity test at 100 μM on CypA, read-out: Inhibition (%)
[4] = activity test at 100 μM on CypA

Cyclophilin B (CypB), sequence (P23284 34-216): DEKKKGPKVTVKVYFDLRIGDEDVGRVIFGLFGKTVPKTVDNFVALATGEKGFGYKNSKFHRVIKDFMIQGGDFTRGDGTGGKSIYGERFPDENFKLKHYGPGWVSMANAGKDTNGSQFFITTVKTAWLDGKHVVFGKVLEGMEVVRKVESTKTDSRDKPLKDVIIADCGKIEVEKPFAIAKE

| Molecule | Inhibition (%) [1] [%] | inhibition at 100 µM [1] [%] | further results |
| --- | --- | --- | --- |
| 2-(3-(4-aminobenzyl)ureido)-N-2-phenyl-ethyl-N-methylacetamide [Compound F551] | 20.8 |  |  |
| CCOC(=O)CNC(=O)NCc1cccc2ccccc12 [Compound F490, ethyl 2-(3-((napht-1-yl)methyl)ureido)acetate] | 33.1 |  |  |
| CCOC(=O)CNC(=O)NCc1ccc(F)cc1 [Compound F513, ethyl 2-(3-(4-fluorobenzyl)ureido)acetate] |  | 23.3 |  |
| CCOC(=O)CNC(=O)NCc1cccc(C(F)(F)F)c1 [Compound F514, ethyl 2-(3-(3-trifluoromethylbenzyl)ureido)acetate] |  | 19.5 |  |
| CCOC(=O)CNC(=O)NCCNc1ccccc1 [Compound F515, ethyl 2-(3-(2-(phenylamino)ethyl)ureido)acetate] |  | 18.2 |  |
| CCOC(=O)CNC(=O)NCCc1ccc(O)cc1 [Compound F517, ethyl 2-(3-(4-hydroxyphenylethyl)ureido)acetate] |  | 20 |  |
| CCOC(=O)CNC(=O)NCc1cc(Cl)cc(Cl)c1 [Compound F520, ethyl 2-(3-(3,5-dichlorobenzyl)ureido)acetate] |  | 18.9 |  |
| CCOC(=O)CNC(=O)NCc1cccc(-c2ncccn2)c1 [Compound F524] | 15.4 |  |  |
| CCOC(=O)CNC(=O)NCc1cccc2c1OCCO2 [Compound F525, ethyl 2-(3-((2,3-dihydrobenzo[b][1,4]dioxin-5-yl)methyl)ureido)acetate] |  | 21.6 |  |
| CCOC(=O)CNC(=O)NCc1cc(C)on1 [Compound F526, ethyl 2-(3-((5-methylisoxazol-3-yl)methyl)ureido)acetate] |  | 21.2 |  |
| CCOC(=O)CNC(=O)NCc1ccccc1-c1ccco1 [Compound F528] | 38.9 |  |  |
| CCOC(=O)CNC(=O)NCc1ccc(N)nc1 [Compound F536, ethyl 2-(3-((6-aminopyridin-3-yl)methyl)ureido)acetate] |  | 47.6 |  |
| Nc1ccc(CNC(=O)NCC(=O)N2CCCC2)cc1 [Compound F537, 1-(4-aminobenzyl)-3-(2-pyrrolidin-1-yl-2-oxoethyl)urea] |  | 24.5 | inhibition at 100 µM [2]: 33.4% |
| CCOC(=O)CNC(=O)NCc1nc2ccccc2[nH]1 [Compound F538, ethyl 2-(3-((1H-benzo[d]imidazol-2-yl)methyl)ureido)acetate] |  |  | inhibition at 100 µM [2, 3]: 15.5% |
| Nc1ccc(CNC(=O)NCC(=O)N2CCCC(O)C2)cc1 (stereo not shown) [Compound F540, 1-(4-aminobenzyl)-3-(2-(3-hydroxy-piperidin-1-yl)-2-oxoethyl)urea] |  |  | inhibition at 100 µM [2, 3]: 32.6% |
| Nc1ccc(CNC(=O)NCC(=O)N2CCCCC2C(=O)N2CCCC2)cc1 (stereo not shown) [Compound F542] | 58.5 |  | Inhibition (%) [2, 4]: 60.1%; IC50 [1]: 36.6 µM |
| Nc1ccc(CNC(=O)NCC(=O)N2CCCCC2)cc1 [Compound F543, 1-(4-aminobenzyl)-3-(2-oxo-2-(piperin-1-yl)ethyl)urea] | 37.5 |  | Inhibition (%) [2, 4]: 27.7% |
| Nc1ccc(CNC(=O)NCC(=O)N2CCOCC2)cc1 [Compound F544, 1-(4-aminobenzyl)-3-(2-morpholino-2-oxoethyl)urea] |  | 26 | inhibition at 100 µM [2, 3]: 12.2% |
| CCOC(=O)C1CCCN(C(=O)CNC(=O)NCc2ccc(N)cc2)C1 (stereo not shown) [Compound F545, ethyl 1-(2-(3-(4-aminobenzyl)ureido)acetyl)piperidine-3-carboxylate] |  | 65.7 | inhibition at 100 µM [2, 3]: 49.2%; IC50 [1]: 75.1 µM |
| Nc1ccc(CNC(=O)NCC(=O)NCCc2ccccc2)cc1 [Compound F547, 2-(3-(4-aminobenzyl)ureido)-N-2-phenyl-ethylacetamide] |  | 15.2 | inhibition at 100 µM [2, 3]: 22.5% |
| COC(=O)[C@H]1CCCN1C(=O)CNC(=O)NCc1ccc(N)cc1 [Compound F558, (R)-methyl 1-(2-(3-(4-aminobenzyl)ureido)acetyl)pyrrolidine-2-carboxylate] |  | 25.9 |  |
| Nc1ccc(CNC(=O)NCC(=O)NCc2cccc(CN3CCOCC3)c2)cc1 [Compound F559] | 21.9 |  |  |

| Molecule | Inhibition (%) [1] [%] | inhibition at 100 µM [1] [%] | further results |
| --- | --- | --- | --- |
| Nc1ccc(CNC(=O)NCC(=O)N2CCC(O)CC2)cc1 [Compound F561, 1-(4-aminobenzyl)-3-(2-(4-hydroxy-piperidin-1-yl)-2-oxoethyl)urea] |  | 15.1 |  |
| Nc1ccc(CNC(=O)NCC(=O)NCc2cccc(-n3cncn3)c2)cc1 [Compound F562, 2-(3-(4-aminobenzyl)ureido)-N-(3-(1H,1,2,4-triazol-1-yl)benzyl)acetamide] | 28.0 |  |  |
| COc1cccc(CNC(=O)CNC(=O)NCc2ccc(N)cc2)c1 [Compound F563, 2-(3-(4-aminobenzyl)ureido)-N-3-methoxybenzylacetamide] |  | 16.4 |  |
| CCOC(=O)CNC(=O)NCc1c(F)cccc1NC(C)=O [Compound F565, ethyl 2-(3-(2-acetamido-6-fluorobenzyl)ureido)acetate] |  | 34.5 |  |
| CCOC(=O)CNC(=S)NCc1ccc(N)nc1 [Compound F569, ethyl 2-(3-((6-aminopyridin-3-yl)methyl)thioureido)acetate] |  | 17.1 |  |
| CCOC(=O)CNC(=O)NCc1ccc(O)cc1O [Compound F572, ethyl 2-(3-(2,4-dihydroxybenzyl)ureido)acetate] |  | 27.6 |  |
| CCOC(=O)CNC(=O)NCc1ccc(O)cc1 [Compound F576, ethyl 2-(3-(4-hydroxybenzyl)ureido)acetate] |  | 18.4 |  |
| CCOC(=O)CNC(=O)NCc1ccc(N)c2ccccc12 [Compound F577, ethyl 2-(3-((4-aminonapht-1-yl)methyl)ureido)acetate] | 47.3 |  |  |
| Nc1ccc(CNC(=O)NCC(=O)N2CCCO2)cn1 [Compound F585, 1-((6-aminopyridin-3-yl)methyl-3-(2-isoxazolidin-2-yl)-2-oxoethyl)urea] | 35.0 |  |  |
| Nc1ccc(CNC(=O)NCC(=O)N2CCCC2c2ccccn2)cn1 (stereo not shown) [Compound F586, 1-((6-aminopyridin-3-yl)methyl)-3-(2-oxo-2-(2-(pyridin-2-yl)pyrrolidin-1-yl)ethyl)urea] |  | 38.4 |  |
| COc1ccccc1C1CCCN1C(=O)CNC(=O)NCc1ccc(N)nc1 (stereo not shown) [Compound F587, 1-((6-aminopyridin-3-yl)methyl)-3-(2-(2-(2-methoxyphenyl)pyrrolidin-1-yl)-2-oxoethyl)urea] |  | 99 | IC50 [1]: 5.2 µM |
| CC(C)N(Cc1cccc2c1OCO2)C(=O)CNC(=O)NCc1ccc(N)nc1 [Compound F590, 1-(((6-aminopyridin-3-yl)methyl)ureido)-N-(benzo[d][1,3]dioxol-4-ylmethyl)-N-isopropylacetamide] | 18.2 |  |  |
| CSc1cccc(CN(C(=O)CNC(=O)NCc2ccc(N)nc2)C(C)C)c1 [Compound F592, 2-(3-((6-aminopyridin-3-yl)methyl)ureido)-N-isopropyl-N-(3-(methylthio)benzyl)acetamide] |  | 18.9 |  |
| Cc1noc(C2CCCN2C(=O)CNC(=O)NCc2ccc(N)nc2)n1 (stereo not shown) [Compound F593, 1-((6-aminopyridin-3-yl)methyl)-3-(2-(2-(3-methyl-1,2,4-oxadiazol-5-yl)pyrrolidin-1-yl)-2-oxoethyl)urea] |  | 23.4 |  |
| Nc1ccc(CNC(=O)NCC(=O)N2CCOCC2)cn1 [Compound F594] | 37.0 |  |  |
| CN(C(=O)CNC(=O)NCc1ccc(N)nc1)C1CCCCC1 [Compound F595, 2-(3-((6-aminopyridin-3-yl)methyl)ureido)-N-cyclohexyl-N-methylacetamide] |  | 29.1 |  |
| Nc1ccc(CNC(=O)Nc2cnc3sccn3c2=O)cn1 [Compound F596, 1-((6-aminopyridin-3-yl)methyl)-3-(5-oxo-5H-thiazolo[3,2-c]pyrimidin-6-yl)urea] | 19.8 |  |  |
| CN(C(=O)CNC(=O)NCc1ccc(N)nc1)c1ccc(F)cc1 [Compound F597, 2-(3-((6-aminopyridin-3-yl)methyl)ureido)-N-(4-fluorophenyl)-N-methylacetamide] |  | 46.3 |  |
| CCN(OCc1ccccc1)C(=O)CNC(=O)NCc1ccc(N)nc1 [Compound F599, 2-(3-((6-aminopyridin-3-yl)methyl)ureido)-N-(benzyloxy)-N-ethylacetamide] |  | 71.8 |  |
| Nc1ccc(CNC(=O)Nn2cnc3ccccc3c2=O)cc1 [Compound F600, 1-(4-aminobenzyl)-3-(4-oxoquinazolin-3(4H)-yl)urea] |  | 65.8 |  |
| (S)-1-((6-aminopyridin-3-yl)methyl)-3-(2-oxo-2-(2-(pyridin-3-yl)pyrrolidin-1-yl)ethyl)urea [Compound F588] | 23.2 |  |  |
